Assay results as given in patent US12331094B2 (Bayer Aktiengesellschaft, priority 2018, dated 2025).
Positions of bridges follow the written chain, without caps; N, C: chain ends. Residues, ends and D or L forms follow the SMILES beside them.

Tests used:
[1] = target: T1, neutral endopeptidase (NEP) (Homo sapiens, UniProt P08473); experiment: Sensitivity towards proteolytic degradation by NEP (reporter cell activity after incubation); format: in vitro ADME; conditions: 4 hours incubation with 0.6 μg/ml NEP at 37° C., then reporter cell activity
T1 construct: purchased R&D Systems 1182-ZNC

[2] = target: T2, insulin degrading enzyme (IDE) (Rattus norvegicus, UniProt P35559); experiment: Sensitivity towards proteolytic degradation by IDE (reporter cell activity after incubation); conditions: 4 hours incubation with 0.6 μg/ml IDE at 37° C., then reporter cell activity
T2 sequence (P35559 1-1019): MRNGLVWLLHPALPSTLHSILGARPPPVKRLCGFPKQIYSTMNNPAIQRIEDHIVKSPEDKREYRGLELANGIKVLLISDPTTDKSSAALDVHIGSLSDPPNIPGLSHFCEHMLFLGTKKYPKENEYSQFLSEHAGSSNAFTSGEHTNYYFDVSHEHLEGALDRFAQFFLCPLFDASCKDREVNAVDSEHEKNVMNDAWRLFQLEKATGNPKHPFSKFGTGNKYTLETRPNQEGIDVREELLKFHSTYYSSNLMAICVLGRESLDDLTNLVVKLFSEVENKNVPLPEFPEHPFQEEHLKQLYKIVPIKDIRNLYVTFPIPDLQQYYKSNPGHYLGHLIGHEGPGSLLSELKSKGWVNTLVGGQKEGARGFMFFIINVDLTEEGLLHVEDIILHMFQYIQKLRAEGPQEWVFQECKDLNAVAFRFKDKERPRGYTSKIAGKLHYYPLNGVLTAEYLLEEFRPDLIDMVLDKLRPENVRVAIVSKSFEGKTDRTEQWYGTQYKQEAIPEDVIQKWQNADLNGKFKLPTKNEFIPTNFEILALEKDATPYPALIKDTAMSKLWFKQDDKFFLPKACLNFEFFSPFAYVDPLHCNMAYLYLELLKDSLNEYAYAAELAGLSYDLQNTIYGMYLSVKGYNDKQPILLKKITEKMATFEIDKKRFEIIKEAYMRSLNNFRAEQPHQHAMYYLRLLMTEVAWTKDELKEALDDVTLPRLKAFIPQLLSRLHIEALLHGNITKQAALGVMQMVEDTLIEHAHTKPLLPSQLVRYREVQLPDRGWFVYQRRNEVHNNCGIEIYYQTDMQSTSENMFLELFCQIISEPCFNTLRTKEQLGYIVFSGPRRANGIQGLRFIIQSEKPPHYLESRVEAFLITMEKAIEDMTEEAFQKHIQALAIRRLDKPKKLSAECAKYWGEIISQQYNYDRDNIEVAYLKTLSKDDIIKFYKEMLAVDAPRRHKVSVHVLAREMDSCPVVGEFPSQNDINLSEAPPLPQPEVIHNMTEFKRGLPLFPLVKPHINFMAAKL

[3] = system: PE-contracted aortic rings; experiment: Vasorelaxation of isolated phenylephrine-contracted rat aortic rings
Method: All experiments were conducted in accordance with institutional guidelines and approved by the local committee on animal experiments. Male Sprague-Dawley rats (weighing 250-300 g) were anesthetized with pentobarbital sodium (40 mg/kg i.p.), killed by decapitation, and exsanguinated. The thoracic aorta was excised and placed in ice-cold Krebs buffer of the following composition: 130 mM NaCl, 14.9 mM NaHCO3, 5.5 mM dextrose, 4.7 mM KCl, 1.18 mM KH2PO4, 1.17 mM MgSO47H2O, and 1.6 mM CaCl22H2O. The vessel was pinned in a Sylgard Petri dish filled with chilled Krebs' solution, cleaned of fat and connective tissue, and cut into ring segments of approximately 3 to 4 mm in length. […] Changes in isometric force were recorded using a PowerLab data acquisition system (software Lab Chart 7.0)
After the equilibration period, aortic rings were challenged with 80 mM KCl to check tissue viability. Next, the endothelial integrity of the preparations was determined by verifying the responsiveness to acetylcholine (ACh, 1 μM) in vessels pre-contracted with Phenylephrine (PE, 1 μM). After wash-out and a period of equilibration, Phenylephrine (PE, 1 μM) was used to induce contraction, thereafter natriuretic peptides and natriuretic peptide engrafted IgGs were evaluated for vasorelaxation.

[4] = system: spontaneously hypertensive rats; experiment: Radiotelemetric blood pressure in conscious spontaneously hypertensive rats; format: in vivo, rat; conditions: 500 μg dose intraperitoneally
Method: Blood pressure and heart rate were monitored in freely moving conscious animals by radiotelemetry (Data Sciences International). Female spontaneously hypertensive rats (SHR/N Crl BR, Charles River) with a body weight of 210-300 g were used for these studies. All animals were housed in individual cages at 22-24° C. ambient temperature and maintained on a 12-hour light/dark cycle with free access to standard laboratory rat chow and water ad libitum. Telemeter (HD-10, DSI) implantation was performed a minimum of 14 days before animals were used for blood pressure measurements. Surgery was performed under aseptic conditions. After shaving the abdominal wall, a midline abdominal incision was made, and the fluid-filled sensor catheter was inserted upstream into the exposed descending aorta between the iliac bifurcation and the renal arteries. According to the DSI guidelines the tip of the telemetric catheter was located caudal to the renal arteries and secured by tissue adhesive. The transmitter body was affixed to the inner peritoneal wall before closure of the abdomen. […] Data are expressed as % of basal values±SEM of at least 4 animals per group. The basal value for each animal was calculated as the average of the values measured in two hours prior to substance application (7:00-9:00 AM). Data are then expressed as averages every half hour, starting 15 minutes post application. […]

T1 sequence (P08473 52-750 limits assumed): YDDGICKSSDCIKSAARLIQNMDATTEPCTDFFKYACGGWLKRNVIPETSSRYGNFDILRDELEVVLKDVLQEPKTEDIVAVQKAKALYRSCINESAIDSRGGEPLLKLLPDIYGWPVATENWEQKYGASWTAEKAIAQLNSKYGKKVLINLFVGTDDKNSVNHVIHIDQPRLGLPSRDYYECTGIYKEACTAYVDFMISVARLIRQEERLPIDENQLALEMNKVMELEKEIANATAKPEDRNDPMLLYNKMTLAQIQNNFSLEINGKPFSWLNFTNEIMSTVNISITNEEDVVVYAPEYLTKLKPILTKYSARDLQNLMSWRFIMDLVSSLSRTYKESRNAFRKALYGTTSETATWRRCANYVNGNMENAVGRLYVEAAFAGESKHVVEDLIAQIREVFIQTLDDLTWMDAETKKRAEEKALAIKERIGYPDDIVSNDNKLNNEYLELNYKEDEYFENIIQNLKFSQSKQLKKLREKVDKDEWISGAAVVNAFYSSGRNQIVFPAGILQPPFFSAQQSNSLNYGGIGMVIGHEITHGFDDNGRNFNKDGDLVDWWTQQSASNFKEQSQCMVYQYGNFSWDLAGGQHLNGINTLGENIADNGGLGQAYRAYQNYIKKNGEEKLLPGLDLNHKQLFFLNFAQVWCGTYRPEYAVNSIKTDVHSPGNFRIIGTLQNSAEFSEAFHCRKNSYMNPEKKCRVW

Molecule | proteolytic degradation by NEP [1] | proteolytic degradation by IDE [2] | vasodilation in PE-contracted aortic rings [3] | Potency (log EC50 values) ([3]; vasodilation, endothelium-intact rat aortic rings contracted by phenylephrine (1 μM)) | drop in mean arterial blood pressure (MAP) [4] | duration of effect [4] [h]
CC[C@H](C)[C@@H]1NC(=O)[C@H](CCCNC(=N)N)NC(=O)[C@H](CC(=O)O)NC(=O)[C@H]([C@@H](C)CC)NC(=O)[C@H](CCCCN)NC(=O)[C@H](CCC(N)=O)NC(=O)CNC(=O)[C@H](Cc2ccccc2)NC(=O)[C@@H](NC(=O)[C@H](CO)NC(=O)[C@H](CO)NC(=O)[C@H](CO)NC(=O)[C@H](Cc2c[nH]cn2)NC(=O)[C@H](C)NC(=O)[C@H](CCSC)NC(=O)[C@H](CCCCN)NC(=O)[C@H](CO)NC(=O)[C@@H](N)CC(N)=O)CSSC[C@@H](C(=O)N[C@@H](CC(=O)O)C(=O)NCC(=O)N[C@@H](CC(C)C)C(=O)N[C@@H](CCCNC(=N)N)C(=O)N[C@@H](CC(C)C)C(=O)N[C@@H](Cc2ccccc2)C(=O)O)NC(=O)CNC(=O)[C@H](CC(C)C)NC(=O)[C@H](CCCNC(=N)N)NC(=O)[C@H](CO)NC(=O)[C@H](C(C)C)NC(=O)[C@H](C)NC(=O)CNC1=O [BNP, Brain Natriuretic Peptide, reference compound] (H-NSKMAHSSSCFGQKIDRIGAVSRLGCDGLRLF-OH; disulfide 10-26; N-terminus and C-terminus assumed) | high sensitivity | high sensitivity |  |  |  | 
ANP peptide: Rat ANP peptide (ADH-GM-10057T, Santai Labs) used as a reference (SLRRSSCFGGRIDRIGAQSGLGCNSFRY) [reference compound] |  |  | dose-dependent vasodilation | −7.4 | approximately 25% | 6 to 8
